One data set relates to mock T-REx 293 cell line. Nature of the data set: Off-target T-REx screening, forskolin-induced cAMP in untransfected cells. In kind it is cell-based. An excerpt: Off-target (T-Rex screening)
Figure S5. Activity of compounds ALX-065 and ALX-171 in forskolin-induced cAMP accumulation in
untransfected cells of the T-REx 293 line. Similar to reference mGlu7 receptor ADX71743, no effects of the tested […]

The nature of data set [1]: Metabolic stability in mouse microsomal fraction. In kind it is in vitro ADME. Conditions: for MML (metabolic stability liver microsome mouse): 1 µM, mouse microsomes 0.3 mg/mL, NADPH-regenerating system; for microsomal CLint at 1 µM: pH 7.4, mouse liver microsomes. The method, then:
A metabolic stability assay was performed using a mouse microsomal fraction (phase I of metabolism) obtained from XenoTech (Kansas City, MO, USA). Compounds for metabolic stability testing were prepared as 10 mM stock solutions in DMSO. Compounds were incubated in triplicate at a 1 µM initial concentration with the microsomal fraction in the presence of NRS (NADPH-regenerating system, 1.3 mM). The final microsomal incubation (0.3 mg/mL) contained the components mentioned below in a pH 7.4 phosphate buffer. Control incubations were conducted without cofactors. The reference compound verapamil was used as a positive control. Incubations were carried out for 1 h on 96-well plates using a heated (+37 °C) orbital shaker (350 rpm). After incubation, the reaction was quenched through the addition of cold acetonitrile. The plate containing the samples was centrifuged at 2000 rpm for 15 min at 4 °C. The supernatants were analyzed using LC–MS.
The HPLC–MS consisted of a Dionex, Ultimate 3000 HPLC, and a Bruker Daltonics amaZon SL mass spectrometer (ESI-IT). The conditions were as follows: Column HPLC Ascentis Express C18 (5 cm × 2.1 mm, 2.7 µm) and an injection volume of 20 µL. An acetonitrile gradient was used with 0.1% formic acid in water at a constant flow rate of 1 mL/min. The programming was as follows: 0–0.5 min 5% ACN, 0.5–3.0 increase of 5–95%, 3.0–3.3 remaining at 95% ACN, 3.3–3.4 min decrease of 95–5% ACN, and 3.4–4.0 min 5% ACN. Samples were analyzed in a single-ion monitoring scan mode in positive mode. The conditions of the main parameters were as follows: a trap drive of 48.2, capillary exit voltage of 140.0 V, dry temperature (set) of 300 °C, nebulizer pressure (set) of 40.00 psi, dry gas flow (set) of 9.00 L/min HV capillary voltage of −4500 V, HV end-plate offset voltage of −500 V.
The percent loss of compounds was calculated through the normalization of the peak area against time 0, where the peak area at T0 was 100%. The elimination rate constant (h) was determined from the plot of ln (percent loss of compound) as a time function and equal to the minor value of the linear curve slope.
(Microsomes from liver hold many membrane-bound enzymes, among them those of drug oxidation.)

The target of data set [2] is T1, recombinant human mGlu7 receptor (FAST-0154C) (Homo sapiens, UniProt Q14831).
T1 construct: host or cells: CHO-K1
As to the kind of experiment: NAM mGlu7 activity on CHO-K1 cell line, cAMP HTRF (EuroscreenFast protocol). The data set is classed as cell-based. Conditions: CHO-K1 human mGlu7, agonist L-AP4 at EC80; for % inhibition at maximal concentration: range 1 nM – 25 µM; for IC50: read-out: IC50 (CHO-K1, Figure S4). The text has this: with inducible expression of human mGlu7 receptor. […]
2.2. NAM mGlu7 receptor activity on CHO-K1 cell line according to EuroscreenFast protocol
ALX-065 and ALX-171 were testing for negative allosteric modulator (NAM) activity on alternative […]
mGlu7 cell line (recombinant human mGlu7 receptor (FAST-0154C) using cAMP HTRF functional assay) […]
by EuroscreenFast company according to the provided methodology.
Receptor Accession Cell line Reference Reference
Number agonist antagonist
Compounds were tested for NAM activity at the human mGlu7 receptor (FAST-0154C) in dose […]
response and in duplicates (range concentration: 1 nM – 25 µM) […]
cAMP HTRF assay for Gi coupled receptor
CHO-K1 cells expressing recombinant human mGlu7 receptor (FAST-0154C) grown prior to the test […]
inmedia without antibiotic are detached by gentle flushing with PBS-EDTA (5 mM EDTA), recovered […]
by centrifugation and resuspended in assay buffer (KRH: 5 mM KCl, 1.25 mM MgSO4, 124 mM NaCl, […]
25 mM HEPES, 13.3 mM Glucose, 1.25 mM KH2PO4, 1.45 mM CaCl2, 0.5 g/L BSA, supplemented with 1 […]
Dose response curves are performed in parallel with the reference compounds.
For antagonist/NAM test (96 well): 12 µl of cells are mixed with 6 µl of the test compound at increasing concentrations and then incubated 10 min. Thereafter 6 µl of the mix of the forskolin and reference agonist is added at a final concentration corresponding to the historical EC80. The plates are then incubated for 30 min at room temperature. After addition of the lysis buffer and 1 hour incubation, cAMP concentrations are estimated, according to the manufacturer specification, with the HTRF kit. […]
In general terms: TR-FRET usually uses a lanthanide donor and a delayed reading to cut background.

T1 sequence (Q14831 35-915): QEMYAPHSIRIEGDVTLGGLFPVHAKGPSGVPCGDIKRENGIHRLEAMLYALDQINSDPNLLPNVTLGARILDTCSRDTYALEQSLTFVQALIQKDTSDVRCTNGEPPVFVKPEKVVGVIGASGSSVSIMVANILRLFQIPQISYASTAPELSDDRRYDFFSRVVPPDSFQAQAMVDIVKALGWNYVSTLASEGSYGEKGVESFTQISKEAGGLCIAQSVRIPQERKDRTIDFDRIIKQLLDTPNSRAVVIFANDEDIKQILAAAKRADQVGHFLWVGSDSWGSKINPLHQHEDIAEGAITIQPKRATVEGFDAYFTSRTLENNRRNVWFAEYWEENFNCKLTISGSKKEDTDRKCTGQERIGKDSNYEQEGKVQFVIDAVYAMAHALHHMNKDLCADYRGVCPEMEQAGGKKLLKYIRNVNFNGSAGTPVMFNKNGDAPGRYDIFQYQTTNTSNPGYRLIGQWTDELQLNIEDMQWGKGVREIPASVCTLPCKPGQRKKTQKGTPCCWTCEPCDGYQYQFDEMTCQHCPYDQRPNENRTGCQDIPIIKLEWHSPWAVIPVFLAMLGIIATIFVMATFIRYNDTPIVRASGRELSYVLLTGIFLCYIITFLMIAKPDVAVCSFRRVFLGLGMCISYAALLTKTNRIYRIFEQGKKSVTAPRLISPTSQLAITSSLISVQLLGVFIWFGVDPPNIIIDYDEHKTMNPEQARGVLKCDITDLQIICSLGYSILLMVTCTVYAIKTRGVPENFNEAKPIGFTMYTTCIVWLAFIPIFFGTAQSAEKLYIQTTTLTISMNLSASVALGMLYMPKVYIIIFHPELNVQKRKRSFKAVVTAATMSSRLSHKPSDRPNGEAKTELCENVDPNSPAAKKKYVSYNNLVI

For `CCc1nc2c(o1)CC(c1ccc(C)cc1C)CC2=O` (centres unmarked) [ADX71743, reference compound], the “effect on forskolin-induced cAMP accumulation in untransfected cells” value (from here on “effect”) in the data set with mock T-REx 293 cell line was “no effects”. For the same compound, the “MML (metabolic stability liver microsome mouse)” value (shortened to “MML”) in data set [1] is 0.01 % remaining after 60 min. For the same compound, in data set [2], the % inhibition (commonly the relative decrease from the control value, in per cent) at maximal concentration is 62.42% and the IC50 (usually the midpoint of a concentration-inhibition curve) is 0.43 µM.
`Cn1c(-c2ccccc2Cl)nc2ccc(-c3ccccc3)cc2c1=O` [ALX-065, 2-(2-chlorophenyl)-3-methyl-6-phenylquinazolin-4(3H)-one]: the “effect” value with mock T-REx 293 cell line was “no effects”. Besides, in data set [1], the “MML” value is 0.81 % remaining after 60 min and the microsomal CLint (as a rule, the capacity of the preparation to metabolise the compound, expressed as a volume cleared per time) at 1 µM turned out to be 268 µL/min/mg. In data set [2], the “% inhibition at maximal concentration” value is 99.62% and the IC50 was 3.74 µM.
As for `COc1cccc(-c2ccc3nc(-c4ccccc4Cl)n(C)c(=O)c3c2)c1OC` [ALX-171, 2-(2-chlorophenyl)-6-(2,3-dimethoxyphenyl)-3-methylquinazolin-4(3H)-one], the “effect” value in the data set with mock T-REx 293 cell line is listed as “no effects”. Moreover, in data set [1], the “MML” value is 54.01 % remaining after 60 min and the microsomal CLint at 1 µM was determined as 34.2 µL/min/mg. In data set [2], the “% inhibition at maximal concentration” value was 105.21% and the IC50 amounted to 5.6 µM.

The values above are taken from paper PMC9916658, “Design and Synthesis of New Quinazolin-4-one Derivatives with Negative mGlu7 Receptor Modulation Activity and Antipsychotic-Like Properties” (International Journal of Molecular Sciences, 2023).
